This series deals with BALB/c mice. Briefly: In vivo safety: ALAT and ASAT from blood, body weight. Also noted: species or system mouse. The procedure: For in vivo studies, the pLuc was mixed with the CPP at CR2 in MilliQ water, wherein the dose per animal was 2.5 mg/kg. After 30 min of incubation at room temperature, glucose was added to the complexes to obtain an isotonic solution with a final injection volume of 336 µL, which was immediately injected intravenously via the tail vein.
In vivo safety was evaluated by measuring the alanine aminotransferase and the aspartate aminotransferase levels from the blood of mice injected with nanoparticles formed between NF55 analogues and pDNA. Additionally, the mice were weighed preinjection with the CPP-pDNA complexes and prior to sacrifice. […]
1 – Alanine aminotransferase 2 – Aspartate aminotransferase

Setting [1] is: blood of mice injected i.v. with CPP/pDNA nanoparticles, pLuc 2.5 mg/kg, CR2.

This is an account of results in publication PMC10051810, “Modification of the Linker Amino Acid in the Cell-Penetrating Peptide NickFect55 Leads to Enhanced pDNA Transfection for In Vivo Applications” (Pharmaceutics, 2023).

For `CCCCCCCCCCCCCCCCCC(=O)N[C@@H](C)C(=O)NCC(=O)N[C@@H](Cc1ccc(O)cc1)C(=O)N[C@@H](CC(C)C)C(=O)N[C@@H](CC(C)C)C(=O)NCC(=O)NCCC[C@H](N)C(=O)N[C@H](C(=O)N[C@@H](CC(N)=O)C(=O)N[C@@H](CC(C)C)C(=O)N[C@@H](CCCCN)C(=O)N[C@@H](C)C(=O)N[C@@H](CC(C)C)C(=O)N[C@@H](C)C(=O)N[C@@H](C)C(=O)N[C@@H](CC(C)C)C(=O)N[C@@H](C)C(=O)N[C@@H](CCCCN)C(=O)N[C@@H](C)C(=O)N[C@H](C(=O)N[C@@H](CC(C)C)C(N)=O)[C@@H](C)CC)[C@@H](C)CC` [NF55], under setting [1], the “ALAT (alanine aminotransferase)” value is given as 629 and the “ASAT (aspartate aminotransferase)” value was determined as 184. The molecule also came in with a Pre-injection weight (weight of mice before injecting with CPP/pDNA nanoparticles) of 26.96 grams. The same molecule gave a Post-injection weight (weight of mice before sacrificing for ex vivo tissue analysis) of 25.35 grams.
